Measured values published in US9895344B2, “Treating various disorders with 7,8-dihydroxyflavone and derivatives thereof” (EMORY UNIVERSITY, priority 2008, dated 2018).

How the values were obtained:
[1] = biological target: T1, TrkB (Rattus norvegicus, UniProt Q63604); assay: TrkB activation in primary cortical neurons (p-TrkB Y817 immunoblotting); type: cell-based; design: endogenous in cells; host or cells: primary cortical neurons
Experimental: Primary cultured rat cortical neurons were prepared as follows. E17 rat pups were decapitated and cortex was extirpated, cross chopped, and suspended by pipetting for separation in 5% fetal calf serum (FCS), 5% horse serum (HS) DMEM. The cell suspension was then centrifuged at 250×g for 5 minutes. This operation was repeated again. Cells were seeded into polyethyleneimine-coated 10 cm^2 dishes and 12-well plates including coated-coverslips and incubated at 37° C. in 5% CO2/95% air. After 3 hours, the culture medium was changed to Neurobasal containing B-27 supplement (Invitrogen; Carlsbad, Calif.) and incubated for 4 days. For maintenance, half of the culture medium was changed to fresh Neurobasal/B27 every 4 days. After 1 week, the dished cultured neurons were ready for use.
To compare the TrkB activation by the synthetic compounds of Examples 9 and 10 (see FIG. 26), primary cortical cultures were prepared. The cortical neurons were treated with 500 nM of various compounds for 30 min and collected the cell lysates. […] Replacing the H-bond acceptor O atom with hydrogen bond donor NH reduced its stimulatory effect. […] In comparison, 7,8-DHF provoked TrkB activation with the minimal concentration of 100 nM (FIG. 27, right panels).

[2] = biological target: TrkA (Mus musculus, UniProt Q3UFB7); assay: Immunoblotting of brain lysates from forced swim test mice: TrkA; type: in vivo; design: from tissue; host or cells: mouse brain; details: 5 mg/kg, 21 days oral, anti-p-TrkA 794, FIG. 35
Experimental: (§1) To explore whether 4′-DMA-7,8-DHF and 7,8-DHF have any antidepressant effect, a forced swim test (6 minutes, immobility recorded in the last 4 minutes) was conducted after chronic treatment of male C57BL/6J mice (8 mice/group) for 21 days via oral injection.

[3] = system: immobility; assay: Forced swim test after 21 days oral treatment; type: in vivo, C57BL/6J mice; details: 5 mg/kg, oral injection, FIG. 34
Experimental: Adult male mice (2-3 months old) were randomly submitted to a forced swim test without a pre-swim. Saline, 4′-DMA-7,8-DHF and 7,8-DHF (5 mg/kg) were orally injected for 21 days. The mice were allowed to adapt to the test room for 2 days. The mice were placed in a clear glass cylinder with a diameter of 16 cm, half-filled with clear water at 24° C.
as §1

[4] = system: immobility time; assay: Forced swim test in TrkB F616A knockin mice with saline or 1NMPP1 pretreatment; type: in vivo; details: drugs for five days, FIG. 36
Experimental: To assess whether the behavior responses by 7,8-DHF and its derivative are mediated by TrkB receptor, TrkB F616A knockin mice were utilized. The transgenic mice were subjected to saline or 1NMPP1 pretreatment (25 μM), respectively (drinking water provided one day prior to drug injection and maintained throughout whole experiment). The control and/or drugs were provided for five days. […] (Data presented in FIGS. 34, 35, and 36 as mean±SEM; *p<0.05 against vehicle, #P<0.01 against vehicle and ***P<0.0001 against vehicle, student t-test.)

[5] = biological target: T2, TrkB (Mus musculus, UniProt P15209); assay: Time course of TrkB activation in mouse brain; type: in vivo, C57BL/6J mice
T2 construct: from tissue; host or cells: mouse brain
Experimental: To compare the stimulatory effect on TrkB receptor in mouse brain, 1 mg/kg of these compounds was injected into C57BL/6J mice and monitored TrkB activation at different time points (see FIG. 28). […] In contrast, 7,8-DHF triggered TrkB activation 2 h after oral injection and peaked at 4 h and TrkB activity progressively faded away. The TrkB activity was demonstrable even at 16 h (FIG. 28).

[6] = system: caspase-3 activation; assay: Active caspase-3 ELISA in glutamate-treated cortical neurons; type: cell-based, rat; details: 50 μM glutamate for 16 hours
Experimental: To quantitatively compare the anti-apoptotic activity of 7,8-DHF and 4′-DMA-7,8-DHF, cortical neurons were prepared from E16 rat embryonic cells and pretreated with various indicated concentrations of 4′-DMA-7,8-DHF and 7,8-DHF for 30 min, followed by 50 μM glutamate for 16 hours. The cell lysates were quantitatively analyzed with an active caspse-3 ELISA.

[7] = system: KA-induced caspase-3 activation; assay: KA-induced neuronal cell death in TrkB F616A mice, oral TrkB agonists; type: in vivo, TrkB F616A knock-in mice
Experimental: TrkB F616A knockin mice (2-3 months old) were fed 1NMPP1 (25 μM) in drinking water one day before pharmacological reagent treatment. The next day, the mice were orally injected with 7,8-DHF or 4′-DMA-7,8-DHF (5 mg/kg) 4 hours before kainic acid (20 mg/kg). The control mice were injected with saline, 1NMPP1, kainic acid alone or administrated 7,8-DHF or 4′-DMA-7,8-DHF 4 hours before kainic acid. In 4 days, the mice were sacrificed and brains were homogenized and ultra-centrifuged. The supernatant (40 μg) was employed for SDS-PAGE and immunoblotting analysis with indicated antibodies, respectively.
To explore whether the neuroprotective effect of these small molecules is dependent on TrkB activation in vivo, TrkB F616A knock-in mice were used.

[8] = system: progenitor proliferation in hippocampus; assay: Neurogenesis analysis in hippocampus (BrdU); type: in vivo, C57BL/6J mice; details: 5 mg/kg daily for 21 days, compared to vehicle control, FIGS. 32 and 33
Experimental: Adult male mice (2-3 months old) were orally injected with saline, 4′-DMA-7,8-DHF and 7,8-DHF (5 mg/kg) for 21 days. Then BrdU (50 mg/kg) was i.p. injected. In 2 hours, the mice were perfused with 4% paraformaldehyde. Immunohistochemical staining was performed on formalin-fixed paraffin-embedded sections. Sections from brain were cut, deparaffinized in xylene and rehydrated in graded alcohols. The slides were boiled in 10 mM citric acid (pH 6.0) for 10 minutes followed by an incubation in 2 N HCl for 10 minutes in room temperature. The slides were then permeabilized and blocked with 1% BSA in 0.2% PBST. The incorporated BrdU were stained using anti-BrdU-FITC (Abcam, Inc; Cambridge, Mass.) at 4° C. for 16 hours. After three washes in PBS, the cells were stained with DAPI for another 10 minutes at room temperature. The slides were mounted with AquaMount (Lerner Laboratories; Pittsburgh, Pa.) containing 0.01% 1,4-diazobicyclo(2,2,2)octane and examined under a fluorescence microscope.
To test whether increasing TrkB activation by 4′-dimethylamino-7,8-dihydroxyflavone would elevate neurogenesis, adult male C57BL/6J mice were injected daily for 21 days with either vehicle, 7,8-DHF, or 4′-DMA-7,8-DHF (5 mg/kg). At the end of treatment (day 21), the animals were injected with BrdU (50 mg/kg, i.p.) to label the dividing cells and were sacrificed 2 hours later. […]

[9] = biological target: T2, TrkB; assay: Immunoblotting of brain lysates from forced swim test mice: TrkB; type: in vivo; details: 5 mg/kg, 21 days oral, anti-p-TrkB 817, FIG. 35
Experimental: as §1

[10] = Toxicity after 3-week chronic treatment (organ pathology, complete blood count); type: in vivo, mice; details: mouse, in vivo
Experimental: To explore whether 4′-dimethylamino-7,8-dihydroxyflavone and 7,8-dihydroxyflavone have any intolerable toxicity, the major organs from mice treated with both compounds at 5 mg/kg/day for 3 weeks were analyzed.

[11] = system: KA-induced neuronal apoptosis; assay: Kainic acid time course assay, oral TrkB agonists (caspase-3 immunoblot of brain lysates); type: in vivo, C57BL/6J mice; details: 1 mg/kg orally, KA 20 mg/kg i.p., FIG. 30 left
Experimental: Male C57BL/6 mice age 60 days were orally injected with a single dose of 4′-DMA-7,8-DHF or 7,8-DHF (1 mg/kg each). KA (20 mg/kg) was i.p. injected. Animals were continually monitored for 2 hours for the onset of seizure activity. At 0, 4 and 8 hours following TrkB agonist treatment, the animals were sacrificed and the brain lysates were analyzed by immunoblotting with p-TrkB-Y817, active caspase-3 and total TrkB antibodies.
To investigate whether these compounds exert any neuroprotective effects in animals, a time course assay was conducted.

[12] = biological target: T3, TrkB F616A (Mus musculus, UniProt P15209, F616A); assay: TrkB phosphorylation in cortical neurons from TrkB F616A knockin mice; type: cell-based; details: inhibitor 100 nM, pretreated 30 minutes
T3 construct: endogenous in cells; host or cells: cortical neurons of TrkB F616A knock-in mice
Experimental: (§2) To explore whether the neuroprotective action of 7,8-dihydroxyflavone is dependent on TrkB activation in vivo, TrkB F616A knockin mice were used. […] To further assess whether 7,8-dihydroxyflavone can mimic BDNF, cortical neurons were prepared from TrkB F616A knockin mice. The cortical neurons were pretreated for 30 minutes with either K252a Trk tyrosine kinase inhibitor (100 nM) or 1NMPP1 inhibitor (100 nM) followed by 0.5 μM 7,8-dihydroxyflavone for 30 minutes.

[13] = system: Akt and Erk1/2; assay: Akt and Erk1/2 activation in cortical neurons from TrkB F616A knockin mice; type: cell-based; details: inhibitor 100 nM
Experimental: as §2

[14] = biological target: T1, TrkB; assay: Western analysis of TrkB activation in hippocampal neurons; type: cell-based; design: endogenous in cells; host or cells: primary hippocampal neurons; details: FIG. 10
Experimental: To further examine whether 7,8-dihydroxyflavone can stimulate TrkB-mediated downstream signaling cascades, Western analysis was performed.
To further test that the stimulatory effect of 7,8-dihydroxyflavone is mediated through TrkB, cells were either untreated or treated with K252a, a selective inhibitor of the tyrosine kinase activity of the Trk family of neutrophin receptors.

[15] = 1 mg/kg, oral injection, FIG. 28

T1 sequence (Q63604 32-821): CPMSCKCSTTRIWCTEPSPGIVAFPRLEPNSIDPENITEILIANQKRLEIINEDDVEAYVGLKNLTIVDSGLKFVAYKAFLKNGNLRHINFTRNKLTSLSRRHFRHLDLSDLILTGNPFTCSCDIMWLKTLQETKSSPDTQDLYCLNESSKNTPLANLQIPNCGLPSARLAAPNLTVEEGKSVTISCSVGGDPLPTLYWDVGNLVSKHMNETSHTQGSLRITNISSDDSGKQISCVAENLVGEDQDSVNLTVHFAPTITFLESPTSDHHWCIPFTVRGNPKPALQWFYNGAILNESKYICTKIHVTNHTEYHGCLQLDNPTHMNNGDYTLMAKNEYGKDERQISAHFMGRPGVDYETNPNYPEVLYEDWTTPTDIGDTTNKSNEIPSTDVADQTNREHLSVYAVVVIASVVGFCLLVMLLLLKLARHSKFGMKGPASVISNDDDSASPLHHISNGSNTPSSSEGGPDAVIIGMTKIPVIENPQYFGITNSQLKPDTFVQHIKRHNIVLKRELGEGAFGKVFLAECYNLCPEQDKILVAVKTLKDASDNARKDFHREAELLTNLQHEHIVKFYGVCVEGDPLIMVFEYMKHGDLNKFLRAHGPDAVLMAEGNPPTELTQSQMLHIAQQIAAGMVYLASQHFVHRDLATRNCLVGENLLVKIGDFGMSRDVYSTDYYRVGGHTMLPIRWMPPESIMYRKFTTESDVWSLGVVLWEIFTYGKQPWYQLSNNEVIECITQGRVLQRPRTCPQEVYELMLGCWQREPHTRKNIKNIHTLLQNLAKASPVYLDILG
T2 sequence (P15209 32-821): as the sequence (Q63604 32-821) above, with M3T, T9S, T10A, I32V, K63R, G84S, T153M, I185L, T394S, N770S counted along it
T3 sequence (P15209 32-821 F616A): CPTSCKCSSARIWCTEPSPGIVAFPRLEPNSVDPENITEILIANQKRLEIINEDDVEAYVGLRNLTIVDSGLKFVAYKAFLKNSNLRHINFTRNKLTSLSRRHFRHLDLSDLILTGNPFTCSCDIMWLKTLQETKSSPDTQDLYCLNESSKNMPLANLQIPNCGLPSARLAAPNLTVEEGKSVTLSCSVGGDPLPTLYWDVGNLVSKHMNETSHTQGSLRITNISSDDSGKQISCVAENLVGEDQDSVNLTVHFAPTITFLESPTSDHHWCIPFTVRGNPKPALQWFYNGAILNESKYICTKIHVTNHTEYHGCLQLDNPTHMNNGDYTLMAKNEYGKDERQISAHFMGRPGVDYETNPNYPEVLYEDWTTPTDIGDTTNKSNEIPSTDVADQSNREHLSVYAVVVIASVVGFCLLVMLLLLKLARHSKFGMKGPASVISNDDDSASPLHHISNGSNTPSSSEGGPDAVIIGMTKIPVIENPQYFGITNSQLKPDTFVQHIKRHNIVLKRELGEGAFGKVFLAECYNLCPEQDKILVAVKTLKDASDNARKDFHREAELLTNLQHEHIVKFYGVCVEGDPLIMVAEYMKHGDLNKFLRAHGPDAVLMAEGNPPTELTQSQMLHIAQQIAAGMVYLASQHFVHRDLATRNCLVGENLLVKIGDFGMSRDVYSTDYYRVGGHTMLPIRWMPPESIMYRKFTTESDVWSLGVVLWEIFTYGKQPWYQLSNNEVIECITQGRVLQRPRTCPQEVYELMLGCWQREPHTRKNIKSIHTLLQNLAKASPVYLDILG
Chain of TrkA (Q3UFB7 34-799): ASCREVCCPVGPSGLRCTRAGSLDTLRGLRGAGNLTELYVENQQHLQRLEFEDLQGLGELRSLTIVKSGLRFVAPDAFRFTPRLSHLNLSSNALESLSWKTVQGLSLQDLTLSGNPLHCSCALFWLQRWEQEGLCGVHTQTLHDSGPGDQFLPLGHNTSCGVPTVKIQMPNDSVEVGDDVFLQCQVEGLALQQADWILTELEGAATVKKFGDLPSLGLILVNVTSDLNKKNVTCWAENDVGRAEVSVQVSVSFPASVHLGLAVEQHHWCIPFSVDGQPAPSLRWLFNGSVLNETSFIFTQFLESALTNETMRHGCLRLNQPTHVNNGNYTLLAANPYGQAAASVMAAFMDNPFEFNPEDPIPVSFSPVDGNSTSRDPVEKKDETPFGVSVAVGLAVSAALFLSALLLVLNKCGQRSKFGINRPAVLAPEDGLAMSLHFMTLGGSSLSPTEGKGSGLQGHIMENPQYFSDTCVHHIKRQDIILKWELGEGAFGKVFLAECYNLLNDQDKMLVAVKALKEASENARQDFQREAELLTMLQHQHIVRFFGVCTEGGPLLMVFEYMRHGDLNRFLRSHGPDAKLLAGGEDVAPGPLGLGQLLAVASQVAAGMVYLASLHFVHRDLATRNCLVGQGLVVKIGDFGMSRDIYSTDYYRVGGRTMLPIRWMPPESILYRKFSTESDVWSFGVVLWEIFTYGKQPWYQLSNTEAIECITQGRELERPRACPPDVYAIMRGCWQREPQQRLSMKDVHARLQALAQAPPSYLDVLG

CN(C)c1ccc(-c2cc(=O)c3ccc(O)c(O)c3o2)cc1 [4′-DMA-7,8-DHF, 4′-Dimethylamino-7,8-dihydroxyflavone]
TrkB activation ([1]; 500 nM, 30 min, FIG. 27 left): robustly provoked TrkB activation
minimal concentration triggering TrkB activation (titration assay) ([1]; FIG. 27 right): 10 nM
TrkA activation in mouse brain [2]: not TrkA activation
swimming immobility [3]: evidently reduced the immobility
immobility time after 1NMPP1 treatment ([4]; 1NMPP1 25 μM in drinking water): neither 4′-DMA-7,8-DHF nor 7,8-DHF had any significant effect
immobility time, saline group [4]: substantially reduced the immobility time
TrkB activity at 16 h [5, 15]: partially decayed
time at which TrkB activation was elicited [5, 15]: 1 h
time at which TrkB activity peaked [5, 15]: 8 h
agonistic effect on TrkB relative to 7,8-DHF ([5]; mouse, in vivo): about 10 fold
duration of agonistic effect in animals relative to 7,8-DHF ([5]; mouse, in vivo): sustained longer
inhibitory effect on caspase-3 activation at 10 nM ([6]; 10 nM): more robust inhibitory effect than 7,8-DHF
Glutamate-provoked caspase-3 activation ([6]; 50 nM or higher concentrations, FIG. 29): substantially blocked
KA-caused caspase-3 activation ([7]; 5 mg/kg orally 4 hours before kainic acid (20 mg/kg), FIG. 31): markedly diminished
protective effect after 1NMPP1 pretreatment ([7]; 1NMPP1 (25 μM) in drinking water, FIG. 31 top): abolished
TrkB phosphorylation after 1NMPP1 pretreatment ([7]; FIG. 31, 2nd panel): notably blocked
neurogenesis (BrdU) [8]: increased neurogenesis
TrkB activation in mouse brain [9]: provoke TrkB
complete blood count (CBC) versus control saline-treated mice [10]: no significant difference
toxicity to the mice [10]: neither compound was toxic
KA-induced neuronal apoptosis over time [11]: gradually decreased

COC(=O)[C@@]1(O)C[C@H]2O[C@]1(C)n1c3ccccc3c3c4c(c5c6ccccc6n2c5c31)C(=O)NC4 [K252a]
blocking of BDNF-provoked TrkB phosphorylation [12]: not
blocking of 7,8-dihydroxyflavone-provoked TrkB phosphorylation ([12]; 0.5 μM 7,8-dihydroxyflavone): not
blocking of BDNF-triggered Akt and Erk1/2 activation [13]: not
effect on TrkB tyrosine phosphorylation in cells exposed to 7,8-dihydroxyflavone [14]: blocked TrkB tyrosine phosphorylation
